Measurements from patent US9493472B2, “Substituted benzoxazoles” (BAYER PHARMA AKTIENGESELLSCHAFT, priority 2013, dated 2016).

What was measured:
thrombin [1] = target: T1, thrombin (Homo sapiens (Human), UniProt P00734); test: Measurement of the thrombin inhibition in buffer; type: biochemical; conditions: human thrombin 0.06 nmol/l, Tris buffer pH 7.4, 22° C.; substrate Boc-Asp(OBzl)-Pro-Arg-AMC; in some cases means
Description: To determine the thrombin inhibition of the substances listed above, a biochemical test system is constructed in which the conversion of a thrombin substrate is used for determining the enzymatic activity of human thrombin. Here, thrombin cleaves aminomethylcoumarin, which is measured fluorescently, from the peptic substrate. The determinations are carried out in microtitre plates.
Substances to be tested are dissolved in various concentrations in dimethyl sulphoxide and incubated for 15 min with human thrombin (0.06 nmol/l dissolved in 50 mmol/l of Tris buffer [C,C,C-tris(hydroxymethyl)aminomethane], 100 mmol/l of sodium chloride, 0.1% BSA [bovine serum albumin], pH 7.4) at 22° C. The substrate (5 μmol/l Boc-Asp(OBzl)-Pro-Arg-AMC from Bachem) is then added. After 30 min of incubation, the sample is excited at a wavelength of 360 nm and the emission is measured at 460 nm. The measured emissions of the test batches with test substance are compared to the control batches without test substance (only dimethyl sulphoxide instead of test substance in dimethyl sulphoxide) and the IC50 values are calculated from the concentration/activity relationships.

thrombin [2] = target: T1, thrombin; test: Thrombin-inhibitory activity in plasma samples (ecarin-activated); type: biochemical; conditions: citrate plasma, prothrombinase activated by ecarin, fluorogenic thrombin substrate; in some cases means; read-out: IC50 [nM] thrombin inhibition in plasma samples
Description: To determine the inhibition of thrombin in plasma samples, plasma […] is activated by ecarin. Thrombin activity and/or its inhibition by potential inhibitors is/are then measured fluorenscently by addition of a substrate.
The substances to be tested are dissolved in various concentrations in dimethyl sulphoxide and diluted with water. In white 96-well flat-bottomed plates, 20 μl of substance dilution are mixed with 20 μl of ecarin solution (ecarin reagent, from Sigma E-0504, final concentration 20 mU per reaction) in Ca buffer (200 mM Hepes+560 mM sodium chloride+10 mM calcium chloride+0.4% PEG) or with 20 μl of Ca buffer (as unstimulated control). Furthermore, 20 μl of fluorogenic thrombin substrate (from Bachem I-1120, final concentration 50 μmol/l) and 20 μl of citrate plasma (from Octapharma) are added, and the mixture is homogenized well. The plate is measured in a SpectraFluorplus Reader using a 360 nm excitation filter and a 465 nm emission filter every minute over 20 minutes.

Work on COc1cc(C(=O)N2CC(C)(C)OCC2CO)cc2nc(NC(CF)c3cccc(Cl)c3)oc12 (stereo not shown) [Example 4, (2-{[1-(3-Chlorophenyl)-2-fluoroethyl]amino}-7-methoxy-1,3-benzoxazol-5-yl)[5-(hydroxymethyl)-2,2-dimethylmorpholin-4-yl]methanone] yielded an IC50 (thrombin [1]) of 1.7 nM and an IC50 (thrombin [2]) of 9.8 nM.
COc1cc(C(=O)N2CC3CCN3C(=O)C2C)cc2nc(NC(CF)c3cccc(Cl)c3)oc12 (single isomer, unassigned) [Example 23, 4-[(2-{[1-(3-Chlorophenyl)-2-fluoroethyl]amino}-7-methoxy-1,3-benzoxazol-5-yl)carbonyl]-3-methyl-1,4-diazabicyclo[4.2.0]octan-2-one] gave an IC50 (thrombin [1]) of 1.7 nM and an IC50 (thrombin [2]) of 4.7 nM.
Work on COc1cc(C(=O)N2CC(C)(CCO)OC[C@H]2C)cc2nc(NC(CF)c3cccc(Cl)c3)oc12 (single isomer, unassigned) [Example 10] yielded an IC50 (thrombin [1]) of 130 nM and an IC50 (thrombin [2]) of 1400 nM.
In the case of CCO[C@@H]1CC(CCO)N(C(=O)c2cc(OC)c3oc(NC(CF)c4cccc(Cl)c4)nc3c2)C1 (single isomer, unassigned) [Example 30], the IC50 (thrombin [1]) is reported as 5.3 nM and the IC50 (thrombin [2]) is reported as 46 nM.
With CCO[C@@H]1CC(CCO)N(C(=O)c2cc(OC)c3oc(NC(CF)c4cccc(Cl)c4)nc3c2)C1 (single isomer, unassigned) [Example 31] the IC50 (thrombin [1]) was 0.54 nM and the IC50 (thrombin [2]) was 5 nM.
With CCO[C@@H]1CC(CCO)N(C(=O)c2cc(OC)c3oc(NC(CF)c4cccc(Cl)c4)nc3c2)C1 (stereo partly drawn) [Example 29, (2-{[1-(3-Chlorophenyl)-2-fluoroethyl]amino}-7-methoxy-1,3-benzoxazol-5-yl)[(4R)-4-ethoxy-2-(2-hydroxyethyl)pyrrolidin-1-yl]methanone] the IC50 (thrombin [1]) was 1.1 nM and the IC50 (thrombin [2]) was 15 nM.
In the case of CCO[C@@H]1CC(CO)N(C(=O)c2cc(OC)c3oc(NC(CF)c4cccc(Cl)c4)nc3c2)C1 (single isomer, unassigned) [Example 28], the IC50 (thrombin [1]) is reported as 2.3 nM and the IC50 (thrombin [2]) is reported as 56 nM.
COc1cc(C(=O)N2CC3(CC3)NC(=O)C2C)cc2nc(NC(CF)c3cccc(Cl)c3)oc12 (single isomer, unassigned) [Example 34, 7-[(2-{[1-(3-Chlorophenyl)-2-fluoroethyl]amino}-7-methoxy-1,3-benzoxazol-5-yl)carbonyl]-6-methyl-4,7-diazaspiro[2.5]octan-5-one] gave an IC50 (thrombin [1]) of 20 nM and an IC50 (thrombin [2]) of 170 nM.
With COc1cc(C(=O)N2CC(C)(C)OCC2CO)cc2nc(NC(CF)c3cccc(Cl)c3)oc12 (single isomer, unassigned) [Example 5, (2-{[1-(3-Chlorophenyl)-2-fluoroethyl]amino}-7-methoxy-1,3-benzoxazol-5-yl)[5-(hydroxymethyl)-2,2-dimethylmorpholin-4-yl]methanone] the IC50 (thrombin [1]) was 1.1 nM and the IC50 (thrombin [2]) was 4.8 nM.
In the case of COc1cc(C(=O)N2CCC(O)C(C)C2)cc2nc(NC(CF)c3cccc(Cl)c3)oc12 (single isomer, unassigned) [Example 2, (2-{[1-(3-Chlorophenyl)-2-fluoroethyl]amino}-7-methoxy-1,3-benzoxazol-5-yl)(4-hydroxy-3-methylpiperidin-1-yl)methanone], the IC50 (thrombin [1]) is reported as 31 nM and the IC50 (thrombin [2]) is reported as 31 nM.
For CCO[C@@H]1CC(CO)N(C(=O)c2cc(OC)c3oc(NC(CF)c4cccc(Cl)c4)nc3c2)C1 (stereo partly drawn) [Example 26, (2-{[1-(3-Chlorophenyl)-2-fluoroethyl]amino}-7-methoxy-1,3-benzoxazol-5-yl)[(4R)-4-ethoxy-2-(hydroxymethyl)pyrrolidin-1-yl]methanone], the IC50 (thrombin [1]) was 0.19 nM and the IC50 (thrombin [2]) was 2 nM.
In the case of COc1cc(C(=O)N2CC3(CC3)NC(=O)C2C)cc2nc(NC(CF)c3cccc(Cl)c3)oc12 (stereo not shown) [Example 32, 7-[(2-{[1-(3-Chlorophenyl)-2-fluoroethyl]amino}-7-methoxy-1,3-benzoxazol-5-yl)carbonyl]-6-methyl-4,7-diazaspiro[2.5]octan-5-one], the IC50 (thrombin [1]) is reported as 0.7 nM and the IC50 (thrombin [2]) is reported as 7.3 nM.
Compound COc1cc(C(=O)N2CC(C)OC[C@@H]2CC(=O)O)cc2nc(NC(CF)c3cccc(Cl)c3)oc12 (single isomer, unassigned) [Example 24] has an IC50 (thrombin [2]) of 4.5 nM.
